Laboratory results from publication PMC4052326, “Alterporriol-Type Dimers from the Mangrove Endophytic Fungus, Alternaria sp. (SK11), and Their MptpB Inhibitions” (Marine Drugs, 2014).

Molecular target: T1, Mycobacterium tuberculosis protein tyrosine phosphatase B (MptpB) (Mycobacterium tuberculosis, UniProt I6WXK4)
T1 construct: The full-length PTPB gene was amplified from genomic DNA of the Mtb H37Rv strain; His6 (N); made in house
Test: biochemical
Type: biochemical
Conditions: for IC50: MptpB, substrate DiFMUP, average of two independent experiments, sodium orthovanadate as positive control

T1 sequence (I6WXK4 whole entry, looked up): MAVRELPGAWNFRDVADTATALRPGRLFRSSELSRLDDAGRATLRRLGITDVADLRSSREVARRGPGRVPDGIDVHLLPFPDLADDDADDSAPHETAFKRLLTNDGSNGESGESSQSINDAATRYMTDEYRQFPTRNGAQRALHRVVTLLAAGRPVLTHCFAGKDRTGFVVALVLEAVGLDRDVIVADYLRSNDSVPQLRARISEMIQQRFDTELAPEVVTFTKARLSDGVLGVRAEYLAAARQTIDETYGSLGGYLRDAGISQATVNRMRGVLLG

Structure (SMILES) | IC50 [µM] | inhibitory activity against MptpB (result in words)
COc1cc(O)c2c(c1O)C(c1cc(O)c3c(c1O)C(=O)C1=C(CC(O)C(C)(O)C1)C3=O)C1CC(C)(O)C(O)C(O)C1C2=O (stereo not shown) [Compound 1, alterporriol S] | 64.7 | 
COc1cc(O)c2c(c1)C(=O)c1cc(C)c(O)c(-c3c(OC)cc4c(c3O)C(=O)C3=C(C4=O)[C@@H](O)[C@](C)(O)[C@H](O)[C@H]3O)c1C2=O [Compound 2, (+)-aS-alterporriol C] | 8.7 | strong inhibitory activity
[Na+].[Na+].[Na+].[O]=[V]([O-])([O-])[O-] [Control, sodium orthovanadate, reference compound] | 0.05 | 
